Measured values as given in article PMC6934184, “Selective DNA-PKcs inhibition extends the therapeutic index of localized radiotherapy and chemotherapy” (The Journal of Clinical Investigation, 2019).

Target: T1, SGK2 (Homo sapiens, UniProt Q9HBY8)
T1 construct: purchased Thermo Fisher Scientific (Life Technologies) SelectScreen
Assay: SelectScreen Z'LYTE
Format: biochemical
Method in brief: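 NU5455 was profiled across the SelectScreen Broad panel of kinase activity and binding assays. Z'LYTE reactions such as CSF1R ran at apparent Km ATP, while the Adapta CAMK1 assay used ATP listed as 10. Values are given as percent.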

T1 sequence (Q9HBY8 whole entry): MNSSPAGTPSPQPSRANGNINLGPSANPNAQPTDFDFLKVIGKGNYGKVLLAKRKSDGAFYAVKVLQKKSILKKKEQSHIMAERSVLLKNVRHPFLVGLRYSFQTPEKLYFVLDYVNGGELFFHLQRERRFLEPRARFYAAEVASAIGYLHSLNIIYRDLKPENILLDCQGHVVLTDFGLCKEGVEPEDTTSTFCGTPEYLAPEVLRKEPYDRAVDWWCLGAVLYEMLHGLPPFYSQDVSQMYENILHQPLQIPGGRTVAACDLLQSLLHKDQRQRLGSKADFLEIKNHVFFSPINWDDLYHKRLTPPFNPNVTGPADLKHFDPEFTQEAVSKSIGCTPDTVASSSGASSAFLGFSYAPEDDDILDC

For `CN(C(=O)CN1CCOCC1)c1ccc2sc3c(-c4cccc5c(=O)cc(N6CC7CCC(C6)O7)oc45)cccc3c2c1` [NU5455], the inhibition at 1 µM was -2.7%.
